# Test results reported in patent US10568975B2, “Nanoparticles for magnetic resonance imaging tracking and methods of making and using thereof” (The Johns Hopkins University, priority 2013, dated 2020).
# Assay: CEST contrast of surface-conjugated polymeric nanoparticles and DYD peptide
# Format: physicochemical
# Procedure: Polymeric particle preparation: The peptide contrast agent, propargylglycine-W-(DYD)6-NH2, was synthesized on a microwave-assisted peptide synthesizer Libertyl (CEM, USA). The CEST nanoparticles were then prepared by standard coupling chemistry. NH2PEG-N3 was coupled to carboxylates on the surface of polystyrene (PS) particles in the presence of EDC and NHS in 200 mM sodium borate buffer pH 7.8 at RT. Propargylglycine-W-(DYD)6-NH2 peptide was coupled with PS-PEG-N3 in the presence of catalytic amount of CuAcAc, TBTA, and excess ascorbic acid in sodium phosphate buffer pH 7, under nitrogen, using click chemistry. Biodegradable CEST nanoparticles based on the polymer of poly(lactic-co-glycolic) acid-co-PEG (PLGA-PEG) were synthesized using a similar procedure and formulated using a oil-in-water emulsion method.
# The nanoparticles are suitable for tumor delivery. As the interior of the nanoparticles has reduced water accessibility compared to liposomes, the CEST agent was conjugated to the surface of the particle as shown in FIGS. 5(a) through 5(c). Two versions were prepared, one with a short (0.6 kDa) and a second with a longer PEG spacer (5.6 kDa). […] The DYD peptide provides contrast centered around 2.5 ppm from water, which should allow discrimination with the BA liposomes through multi-color CEST imaging.
substance,measurement,value
propargylglycine-W-(DYD)6-NH2 [DYD peptide],"CEST contrast centre, offset from water",around 2.5 ppm
